Measured values reported in patent US11008334B2, “Compositions and methods for treating cancer” (The Regents of the University of California, priority 2012, dated 2021).
Like-named read-outs stand apart in the source and are kept apart here.

Target: T1, K-RasG12C (1-169) (Homo sapiens, UniProt P01116, G12C)
T1 construct: Un-tagged recombinant K-Ras G12C (1-169) at 4 μM in Buffer A; hexahistidine (cleaved yes); made in house; host or cells: Escherichia coli BL21 (DE)
Test: Mass spectrometric screen for extent of covalent labeling
Type: binding
Details: for percent covalent labeling at 10 µM: 10 micromolar; for Labeling % (10 micM) 24h: 10 micM compound, (plate) or (single) measurement
Protocol: Un-tagged recombinant K-Ras G12C (1-169) at 4 μM in Buffer A was reacted with inhibitors at 200 μM or 10 μM (2% DMSO final). At 2, 6, and 24 hrs, 10 μL aliquots were removed and the reactions were stopped by addition of 1 μL 2% formic acid. The extent of modification was determined by mass spectrometry.

[1] = 2 h, 2 hrs, read-out: Percent reduction in activity of compound at 10 micromolar relative to control (no compound), 2 hrs
[2] = 6 h, 6 hrs, read-out: Percent reduction in activity of compound at 10 micromolar relative to control (no compound), 6 hrs
[3] = 24 h, 24 hrs, read-out: Percent reduction in activity of compound at 10 micromolar relative to control (no compound), 24 hrs

percent covalent labeling at 10 µM [1] [%]	percent covalent labeling at 10 µM [2] [%]	percent covalent labeling at 10 µM [3] [%]	Labeling % (10 micM) 24h	Labeling % (10 micM) 24h (Table 5)	SMILES
≤ 5	≤ 5	≤ 5	–	–	C=CC(=O)NC1CCN(C(=O)COc2ccc(Cl)cc2Cl)CC1 [JO-01-171]
≤ 5	≤ 5	≤ 5	–	–	C=CC(=O)N1CCN(C(=O)COc2ccc(Cl)cc2Cl)CC1 [JO-01-172]
≤ 5	≤ 5	5 to 20	–	–	C=CS(=O)(=O)NC1CCN(C(=O)CSc2ccc(Cl)cc2Cl)CC1 [JO-02-26]
≤ 5	≤ 5	–	++ (plate) (5% < ++ <=20%)	++ (plate) (5% < ++ <=20%)	C=CS(=O)(=O)NC1CCN(C(=O)COc2ccc(Cl)cc2Cl)CC1 [JO-02-31A]
≤ 5	≤ 5	5 to 20	–	–	C=CS(=O)(=O)NC1CCN(C(=O)CSc2ccc(Cl)cc2C)CC1 [JO-02-31B]
≤ 5	≤ 5	20 to 40	–	–	C=CS(=O)(=O)NC1CCN(C(=O)CSc2ccc(Cl)c3ccccc23)CC1 [JO-02-31C]
≤ 5	≤ 5	≤ 5	–	–	C=CS(=O)(=O)NC1CCN(C(=O)CSc2c(Cl)cccc2Cl)CC1 [JO-02-31D]
≤ 5	≤ 5	≤ 5	–	–	C=CS(=O)(=O)NCCNC(=O)COc1ccc(Cl)cc1Cl [JO-02-36A]
≤ 5	≤ 5	≤ 5	–	–	C=CS(=O)(=O)NCCCNC(=O)COc1ccc(Cl)cc1Cl [JO-02-36B]
≤ 5	≤ 5	≤ 5	–	–	C=CC(=O)NCCNC(=O)COc1ccc(Cl)cc1Cl [JO-02-37A]
≤ 5	≤ 5	≤ 5	–	–	C=CC(=O)NCCCNC(=O)COc1ccc(Cl)cc1Cl [JO-02-37B]
≤ 5	≤ 5	≤ 5	–	–	C=CS(=O)(=O)Nc1cc(-c2cccs2)n[nH]1 [JO-02-38B]
≤ 5	≤ 5	≤ 5	–	–	C=CS(=O)(=O)NC1CCN(C(=O)c2cc3cc(Cl)ccc3[nH]2)CC1 [JO-02-49A]
≤ 5	≤ 5	≤ 5	–	–	C=CS(=O)(=O)NC1CCN(C(=O)c2cc3cc(F)ccc3[nH]2)CC1 [JO-02-49B]
≤ 5	≤ 5	≤ 5	–	–	C=CS(=O)(=O)NC1CCN(C(=O)c2cc3cc(OC)ccc3[nH]2)CC1 [JO-02-49C]
≤ 5	≤ 5	5 to 20	–	–	C=CS(=O)(=O)N1CCC(NC(=O)COc2ccc(Cl)cc2Cl)CC1 [JO-02-55]
≤ 5	≤ 5	40 to 60	++++ (plate) (40% < ++++ <=60%)	++++ (plate) (40% < ++++ <=60%)	C=CS(=O)(=O)NCC(=O)NC1CCN(C(=O)COc2ccc(Cl)cc2Cl)CC1 [JO-02-56A]
≤ 5	≤ 5	5 to 20	–	–	C=CS(=O)(=O)NCC(=O)N1CCC(NC(=O)COc2ccc(Cl)cc2Cl)CC1 [JO-02-56B]
≤ 5	≤ 5	≤ 5	–	–	O=C(NC1CCN(C(=O)COc2ccc(Cl)cc2Cl)CC1)C1CO1 (stereo not shown) [JO-02-72]
≤ 5	≤ 5	20 to 40	–	–	C=CS(=O)(=O)N1CC2CN(C(=O)COc3ccc(Cl)cc3Cl)CC2C1 (stereo not shown) [JO-02-74A]
≤ 5	≤ 5	5 to 20	–	–	C=CS(=O)(=O)N1CCC2(CCN(C(=O)COc3ccc(Cl)cc3Cl)C2)C1 (stereo not shown) [JO-02-74B]
≤ 5	≤ 5	5 to 20	–	–	C=CS(=O)(=O)N1CCC2(CN(C(=O)COc3ccc(Cl)cc3Cl)C2)C1 [JO-02-74C]
≤ 5	≤ 5	≤ 5	–	–	O=C(COc1ccc(Cl)cc1Cl)N1CCC(NCC2CO2)CC1 (stereo not shown) [JO-02-77A]
≤ 5	≤ 5	5 to 20	–	–	C=CS(=O)(=O)N1CCC2(CC1)CN(C(=O)COc1ccc(Cl)cc1Cl)C2 [JO-02-112A]

percent covalent labeling at 10 µM [1] [%]	percent covalent labeling at 10 µM [2] [%]	percent covalent labeling at 10 µM [3] [%]	Labeling % (10 micM) 24h	Labeling % (10 micM) 24h (Table 5)	SMILES
≤ 5	≤ 5	5 to 20	–	–	C=CS(=O)(=O)C1CCC2(CC1)CCN(C(=O)COc1ccc(Cl)cc1Cl)C2 (stereo not shown) [JO-02-112B]
≤ 5	≤ 5	≤ 5	–	–	C=CS(=O)(=O)NCC1CCN(C(=O)COc2ccc(Cl)cc2Cl)CC1 [JO-02-112C]
≤ 5	≤ 5	20 to 40	+++ (plate) (20%< +++ <=40%)	+++ (plate) (20%< +++ <=40%)	C=CS(=O)(=O)N1CCN(C(=O)COc2ccc(Cl)cc2Cl)CC1 [JO-02-112D]
≤ 5	≤ 5	≤ 5	–	–	C=CS(=O)(=O)NC1CCN(C(=O)COc2ccc(Cl)cc2)CC1 [JO-02-115A]
≤ 5	≤ 5	≤ 5	–	–	C=CS(=O)(=O)NC1CCN(C(=O)C(C)Oc2ccc(Cl)cc2Cl)CC1 (stereo not shown) [JO-02-115B]
≤ 5	≤ 5	≤ 5	–	–	C=CS(=O)(=O)NC1CCN(C(=O)[C@@H](C)Oc2ccc(Cl)cc2Cl)CC1 [JO-02-115C]
≤ 5	≤ 5	20 to 40	–	–	C=CS(=O)(=O)NC1CCN(C(=O)COc2cc(Cl)c(Cl)cc2Cl)CC1 [JO-02-115D]
≤ 5	≤ 5	≤ 5	–	–	C=CS(=O)(=O)NC1CCN(C(=O)C(C)Oc2cc(Cl)c(Cl)cc2Cl)CC1 (stereo not shown) [JO-02-116A]
≤ 5	≤ 5	≤ 5	–	–	C=CS(=O)(=O)NC1CCN(C(=O)COc2nc(Cl)c(Cl)cc2Cl)CC1 [JO-02-116B]
≤ 5	≤ 5	20 to 40	–	–	C=CS(=O)(=O)NCC(=O)Nc1cc(-c2cccs2)n[nH]1 [JO-02-125]
≤ 5	≤ 5	≤ 5	–	–	C=CS(=O)(=O)NCC(=O)Nc1cc(-c2ccc(Cl)cc2)n[nH]1 [JO-02-139E]
≤ 5	5 to 20	> 60	–	–	C=CS(=O)(=O)NC1CCN(C(=O)CNc2cc(Cl)c(Cl)cc2I)CC1 [JO-02-144]
≤ 5	≤ 5	20 to 40	–	–	O=C(NC1CCN(C(=O)CNc2cc(Cl)c(Cl)cc2I)CC1)C1CO1 (stereo not shown) [JO-02-152]
≤ 5	5 to 20	40 to 60	–	–	C=CC(=O)N1CCN(C(=O)CNc2cc(Cl)c(Cl)cc2I)CC1 [JO-02-155]
≤ 5	≤ 5	≤ 5	–	–	C=CC(=O)N1CC[C@@H](NC(=O)CNc2cc(Cl)c(Cl)cc2I)C1 [JO-02-157A (R)]
≤ 5	≤ 5	5 to 20	–	–	C=CC(=O)N1CC[C@H](NC(=O)CNc2cc(Cl)c(Cl)cc2I)C1 [JO-02-157B (S)]
–	–	–	+ (plate) (+ <=5%)	+ (plate) (+ <=5%)	C=CC(=O)N1CCN(C(=O)COc2ccc(Cl)cc2Cl)CC1 [JO-02-172]
≤ 5	≤ 5	≤ 5	–	–	N#CC1(NC(=O)C2CCN(C(=O)COc3ccc(Cl)cc3Cl)CC2)CC1 [Ras-001]
≤ 5	≤ 5	≤ 5	–	–	C=CC(=O)NC1CCN(C(=O)COc2c(Cl)cc(Cl)cc2Cl)CC1 [Ras-002]
≤ 5	≤ 5	≤ 5	–	–	C=CC(=O)NC1CCN(C(=O)Cn2cnc3ccccc32)CC1 [Ras-003]
≤ 5	≤ 5	≤ 5	–	–	C=CC(=O)NC1CCN(C(=O)Cn2ncc3ccccc32)CC1 [Ras-004]
≤ 5	≤ 5	≤ 5	–	–	C=CC(=O)NC1CCN(C(=O)CCn2cnc3ccccc32)CC1 [Ras-005]
≤ 5	≤ 5	≤ 5	–	–	C=CC(=O)NC1CCN(C(=O)CCn2ncc3ccccc32)CC1 [Ras-006]
